In ChEMBL document CHEMBL3991601, “The target landscape of clinical kinase drugs” (Science, 2017):
The source made the active and inactive calls. Cut-off read from the data, not from the text of the source, for most assays here: actives have a measured Kd and inactives only a lower limit.

Columns and labels:
Ephrin type-A receptor 4 = Ephrin type-A receptor 4 (Homo sapiens, UniProt P54764)
[1] = molecular target: Tyrosine-protein kinase Fer (Homo sapiens, UniProt P16591)
[2] = molecular target: Guanine nucleotide-binding protein G(i) subunit alpha-2 (Homo sapiens, UniProt P04899)
[3] = molecular target: T1, Serine/threonine-protein kinase ICK (Homo sapiens, UniProt Q9UPZ9)
T1 sequence (Q9UPZ9 whole entry): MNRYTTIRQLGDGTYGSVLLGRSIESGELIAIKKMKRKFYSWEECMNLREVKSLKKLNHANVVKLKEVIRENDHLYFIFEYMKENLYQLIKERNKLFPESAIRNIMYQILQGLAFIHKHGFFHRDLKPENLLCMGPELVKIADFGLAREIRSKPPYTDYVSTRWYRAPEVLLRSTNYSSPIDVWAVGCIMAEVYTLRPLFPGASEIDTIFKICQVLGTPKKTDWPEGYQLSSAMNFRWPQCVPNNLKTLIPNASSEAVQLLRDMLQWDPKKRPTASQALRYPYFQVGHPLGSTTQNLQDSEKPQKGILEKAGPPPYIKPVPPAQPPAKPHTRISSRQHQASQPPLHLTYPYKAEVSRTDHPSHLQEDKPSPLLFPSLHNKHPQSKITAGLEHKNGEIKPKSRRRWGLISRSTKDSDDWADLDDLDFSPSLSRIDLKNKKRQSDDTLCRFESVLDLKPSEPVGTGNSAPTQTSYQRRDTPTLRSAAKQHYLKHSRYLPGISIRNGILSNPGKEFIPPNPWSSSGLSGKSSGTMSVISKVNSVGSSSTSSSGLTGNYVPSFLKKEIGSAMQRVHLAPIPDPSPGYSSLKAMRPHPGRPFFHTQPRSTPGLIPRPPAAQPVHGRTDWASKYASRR

[4] = molecular target: T2, Mitogen-activated protein kinase kinase kinase kinase 3 (Homo sapiens, UniProt Q8IVH8)
T2 sequence (Q8IVH8 whole entry): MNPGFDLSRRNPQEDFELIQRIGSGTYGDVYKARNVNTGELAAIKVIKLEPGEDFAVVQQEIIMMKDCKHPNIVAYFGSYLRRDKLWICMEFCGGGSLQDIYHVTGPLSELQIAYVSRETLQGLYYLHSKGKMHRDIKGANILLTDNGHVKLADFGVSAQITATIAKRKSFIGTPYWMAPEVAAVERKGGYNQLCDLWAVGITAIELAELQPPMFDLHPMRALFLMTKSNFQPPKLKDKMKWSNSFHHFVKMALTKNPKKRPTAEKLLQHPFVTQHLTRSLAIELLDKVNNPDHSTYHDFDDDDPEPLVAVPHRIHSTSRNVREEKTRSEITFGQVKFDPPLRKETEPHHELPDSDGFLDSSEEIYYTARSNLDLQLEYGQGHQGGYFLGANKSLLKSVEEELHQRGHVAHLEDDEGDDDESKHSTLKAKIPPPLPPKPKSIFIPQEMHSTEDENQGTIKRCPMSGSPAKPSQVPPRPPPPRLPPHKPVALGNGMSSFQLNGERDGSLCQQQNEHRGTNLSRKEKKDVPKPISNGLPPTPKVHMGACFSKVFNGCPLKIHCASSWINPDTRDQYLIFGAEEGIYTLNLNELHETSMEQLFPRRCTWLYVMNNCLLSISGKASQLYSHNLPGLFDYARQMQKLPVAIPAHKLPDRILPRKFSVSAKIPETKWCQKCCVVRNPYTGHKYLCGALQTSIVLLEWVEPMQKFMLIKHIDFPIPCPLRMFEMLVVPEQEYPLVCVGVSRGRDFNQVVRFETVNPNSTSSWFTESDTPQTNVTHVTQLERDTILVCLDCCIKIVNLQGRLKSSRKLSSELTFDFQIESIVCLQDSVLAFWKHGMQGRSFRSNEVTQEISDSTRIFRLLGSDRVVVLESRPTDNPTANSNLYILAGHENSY

[5] = molecular target: T3, Serine/threonine-protein kinase Nek3 (Homo sapiens, UniProt P51956)
T3 sequence (P51956 whole entry): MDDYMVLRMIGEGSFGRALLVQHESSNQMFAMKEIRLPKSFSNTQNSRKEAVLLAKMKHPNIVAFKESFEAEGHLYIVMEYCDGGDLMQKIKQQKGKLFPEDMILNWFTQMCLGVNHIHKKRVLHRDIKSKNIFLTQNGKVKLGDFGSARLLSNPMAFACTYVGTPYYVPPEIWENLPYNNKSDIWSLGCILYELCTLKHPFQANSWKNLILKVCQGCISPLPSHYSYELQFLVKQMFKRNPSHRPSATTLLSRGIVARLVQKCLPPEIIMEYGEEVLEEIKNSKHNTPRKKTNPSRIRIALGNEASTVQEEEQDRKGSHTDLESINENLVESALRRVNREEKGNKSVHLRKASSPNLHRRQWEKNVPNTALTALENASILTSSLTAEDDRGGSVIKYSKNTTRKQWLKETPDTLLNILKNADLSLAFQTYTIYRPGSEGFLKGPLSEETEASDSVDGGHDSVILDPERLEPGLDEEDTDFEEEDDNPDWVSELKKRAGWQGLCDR

[6] = molecular target: T4, NUAK family SNF1-like kinase 2 (Homo sapiens, UniProt Q9H093)
T4 sequence (Q9H093 whole entry): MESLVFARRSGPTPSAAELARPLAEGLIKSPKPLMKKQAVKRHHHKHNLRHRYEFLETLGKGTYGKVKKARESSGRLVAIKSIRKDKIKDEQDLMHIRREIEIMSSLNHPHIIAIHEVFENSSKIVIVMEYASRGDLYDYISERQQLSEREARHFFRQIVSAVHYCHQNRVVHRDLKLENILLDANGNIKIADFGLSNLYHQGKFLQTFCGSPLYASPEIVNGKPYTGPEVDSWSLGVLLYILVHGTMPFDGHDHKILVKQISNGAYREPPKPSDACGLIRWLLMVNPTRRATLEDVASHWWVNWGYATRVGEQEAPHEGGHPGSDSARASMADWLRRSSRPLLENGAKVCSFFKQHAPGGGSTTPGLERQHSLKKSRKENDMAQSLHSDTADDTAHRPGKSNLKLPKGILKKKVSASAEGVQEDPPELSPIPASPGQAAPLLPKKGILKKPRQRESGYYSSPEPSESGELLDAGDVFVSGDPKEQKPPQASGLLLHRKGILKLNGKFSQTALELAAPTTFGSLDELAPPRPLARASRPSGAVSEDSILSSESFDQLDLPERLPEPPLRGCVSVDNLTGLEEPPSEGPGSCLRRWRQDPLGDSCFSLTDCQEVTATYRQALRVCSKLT

[7] = molecular target: Ribosomal protein S6 kinase alpha-6 (Homo sapiens, UniProt Q9UK32)
Note: in the data inactive means no Kd found up to 30 µM.

Ephrin type-A receptor 4, sequence (P54764 whole entry): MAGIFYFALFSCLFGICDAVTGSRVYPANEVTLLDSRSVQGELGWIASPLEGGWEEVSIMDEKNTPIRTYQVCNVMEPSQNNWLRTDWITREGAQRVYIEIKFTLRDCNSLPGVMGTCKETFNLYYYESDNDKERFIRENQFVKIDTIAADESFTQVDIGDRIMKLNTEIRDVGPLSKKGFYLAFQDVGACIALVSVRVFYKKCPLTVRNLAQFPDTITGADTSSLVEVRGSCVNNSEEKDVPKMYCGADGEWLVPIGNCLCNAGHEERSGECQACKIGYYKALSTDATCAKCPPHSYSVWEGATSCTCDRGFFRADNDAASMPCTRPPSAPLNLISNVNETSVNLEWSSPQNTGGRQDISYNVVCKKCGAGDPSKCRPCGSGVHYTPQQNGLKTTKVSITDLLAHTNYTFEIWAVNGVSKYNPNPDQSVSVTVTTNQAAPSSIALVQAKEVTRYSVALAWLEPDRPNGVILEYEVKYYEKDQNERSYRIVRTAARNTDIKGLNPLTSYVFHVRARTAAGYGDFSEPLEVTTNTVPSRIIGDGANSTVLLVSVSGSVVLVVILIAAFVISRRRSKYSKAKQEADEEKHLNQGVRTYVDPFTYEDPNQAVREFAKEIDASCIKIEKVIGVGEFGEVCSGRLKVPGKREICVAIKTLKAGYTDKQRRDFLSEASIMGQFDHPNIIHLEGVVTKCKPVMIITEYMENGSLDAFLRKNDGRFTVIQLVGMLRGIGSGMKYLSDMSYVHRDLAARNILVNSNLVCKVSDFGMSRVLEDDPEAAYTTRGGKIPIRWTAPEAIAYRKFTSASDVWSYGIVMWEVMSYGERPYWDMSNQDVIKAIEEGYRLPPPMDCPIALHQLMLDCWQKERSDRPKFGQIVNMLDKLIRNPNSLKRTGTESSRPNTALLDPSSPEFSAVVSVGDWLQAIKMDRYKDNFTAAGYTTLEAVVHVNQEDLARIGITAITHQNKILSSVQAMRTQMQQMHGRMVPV
Ribosomal protein S6 kinase alpha-6, sequence (Q9UK32 whole entry): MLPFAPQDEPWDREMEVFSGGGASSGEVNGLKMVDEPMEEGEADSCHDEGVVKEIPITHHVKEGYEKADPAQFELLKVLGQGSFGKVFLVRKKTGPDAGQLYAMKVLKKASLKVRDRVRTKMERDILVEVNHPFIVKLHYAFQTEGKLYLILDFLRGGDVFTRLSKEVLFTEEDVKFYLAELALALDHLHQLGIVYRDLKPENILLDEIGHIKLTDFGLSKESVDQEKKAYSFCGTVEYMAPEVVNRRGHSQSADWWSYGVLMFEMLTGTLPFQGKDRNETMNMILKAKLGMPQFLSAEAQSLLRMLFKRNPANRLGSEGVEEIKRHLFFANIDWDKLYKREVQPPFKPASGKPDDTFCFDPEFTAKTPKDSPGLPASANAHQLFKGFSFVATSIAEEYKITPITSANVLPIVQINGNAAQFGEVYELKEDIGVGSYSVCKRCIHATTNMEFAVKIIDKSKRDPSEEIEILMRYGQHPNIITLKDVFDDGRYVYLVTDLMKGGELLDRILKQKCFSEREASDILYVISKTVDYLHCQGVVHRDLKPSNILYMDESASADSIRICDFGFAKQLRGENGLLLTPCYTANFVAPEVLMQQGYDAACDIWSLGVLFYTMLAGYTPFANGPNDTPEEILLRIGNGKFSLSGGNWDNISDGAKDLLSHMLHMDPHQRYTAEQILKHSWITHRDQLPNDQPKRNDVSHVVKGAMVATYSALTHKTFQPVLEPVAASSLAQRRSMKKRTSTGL
Tyrosine-protein kinase Fer, sequence (P16591 whole entry): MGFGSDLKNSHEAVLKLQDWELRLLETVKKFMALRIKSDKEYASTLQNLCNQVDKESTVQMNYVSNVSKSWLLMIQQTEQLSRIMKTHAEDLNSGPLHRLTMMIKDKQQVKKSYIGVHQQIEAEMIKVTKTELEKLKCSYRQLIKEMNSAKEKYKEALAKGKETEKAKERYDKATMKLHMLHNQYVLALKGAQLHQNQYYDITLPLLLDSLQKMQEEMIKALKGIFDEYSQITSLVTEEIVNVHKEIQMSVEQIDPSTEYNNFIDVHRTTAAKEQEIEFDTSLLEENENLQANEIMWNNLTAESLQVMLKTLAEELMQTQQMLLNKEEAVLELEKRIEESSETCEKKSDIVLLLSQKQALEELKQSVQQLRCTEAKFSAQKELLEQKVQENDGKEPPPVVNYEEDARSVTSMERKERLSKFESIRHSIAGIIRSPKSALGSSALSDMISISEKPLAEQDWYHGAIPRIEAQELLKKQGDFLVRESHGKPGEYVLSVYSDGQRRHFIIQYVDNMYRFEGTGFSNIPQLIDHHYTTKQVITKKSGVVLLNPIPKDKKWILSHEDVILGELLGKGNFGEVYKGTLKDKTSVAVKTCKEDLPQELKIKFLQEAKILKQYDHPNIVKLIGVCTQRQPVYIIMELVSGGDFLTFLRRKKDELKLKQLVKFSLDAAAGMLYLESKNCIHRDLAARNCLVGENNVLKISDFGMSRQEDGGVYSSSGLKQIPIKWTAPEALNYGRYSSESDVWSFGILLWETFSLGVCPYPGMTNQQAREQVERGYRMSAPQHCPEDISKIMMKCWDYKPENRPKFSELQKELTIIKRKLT
Guanine nucleotide-binding protein G(i) subunit alpha-2, sequence (P04899 whole entry): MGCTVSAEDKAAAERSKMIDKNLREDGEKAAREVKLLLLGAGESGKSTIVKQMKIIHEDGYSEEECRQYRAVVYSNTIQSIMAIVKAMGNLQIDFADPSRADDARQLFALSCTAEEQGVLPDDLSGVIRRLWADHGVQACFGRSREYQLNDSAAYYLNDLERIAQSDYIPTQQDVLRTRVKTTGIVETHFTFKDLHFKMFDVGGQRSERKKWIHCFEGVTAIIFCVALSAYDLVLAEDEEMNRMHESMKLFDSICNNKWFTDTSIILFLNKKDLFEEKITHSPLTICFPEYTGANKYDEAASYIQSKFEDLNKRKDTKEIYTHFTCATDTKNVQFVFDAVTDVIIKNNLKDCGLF

Row | Kd (Ephrin type-A receptor 4) | Kd [1] | Kd [2] | Kd [3] | Kd [4] | Kd [5] | Kd [6] | Kd [7] | SMILES
1 | > 30 µM (inactive) | 0.517 µM (active) | > 30 µM (inactive) | > 30 µM (inactive) | > 30 µM (inactive) | > 30 µM (inactive) | > 30 µM (inactive) | > 30 µM (inactive) | Cc1cc(Nc2nc(N[C@@H](C)c3ncc(F)cn3)ncc2Cl)n[nH]1 [AZD-1480]
2 | > 30 µM (inactive) | > 30 µM (inactive) | > 30 µM (inactive) | > 30 µM (inactive) | > 30 µM (inactive) | > 30 µM (inactive) | > 30 µM (inactive) | > 30 µM (inactive) | CCN(CCCOc1ccc2c(Nc3cc(CC(=O)Nc4cccc(F)c4)n[nH]3)ncnc2c1)CCOP(=O)(O)O [BARASERTIB]
3 | > 30 µM (inactive) | > 30 µM (inactive) | > 30 µM (inactive) | > 30 µM (inactive) | > 30 µM (inactive) | > 30 µM (inactive) | > 30 µM (inactive) | > 30 µM (inactive) | COc1cccc(Nc2ncnn3ccc(CN4CC[C@@H](N)[C@H](O)C4)c23)c1 [BMS-690514]
4 | > 30 µM (inactive) | > 30 µM (inactive) | > 30 µM (inactive) | > 30 µM (inactive) | > 30 µM (inactive) | > 30 µM (inactive) | > 30 µM (inactive) | > 30 µM (inactive) | CCOc1ccn(-c2ccc(F)cc2)c(=O)c1C(=O)Nc1ccc(Oc2ccnc(N)c2Cl)c(F)c1 [BMS-777607]
5 | > 30 µM (inactive) | > 30 µM (inactive) | > 30 µM (inactive) | > 30 µM (inactive) | > 30 µM (inactive) | > 30 µM (inactive) | > 30 µM (inactive) | > 30 µM (inactive) | COc1cc2nccc(Oc3ccc(NC(=O)C4(C(=O)Nc5ccc(F)cc5)CC4)cc3)c2cc1OC [CABOZANTINIB]
6 | > 30 µM (inactive) | > 30 µM (inactive) | > 30 µM (inactive) | > 30 µM (inactive) | > 30 µM (inactive) | > 30 µM (inactive) | > 30 µM (inactive) | > 30 µM (inactive) | c1cc(OCCN2CCCCC2)cc(-c2n[nH]c3ccc(-c4nc[nH]n4)cc23)c1 [CC-401]
7 | > 30 µM (inactive) | > 30 µM (inactive) | > 30 µM (inactive) | > 30 µM (inactive) | > 30 µM (inactive) | > 30 µM (inactive) | > 30 µM (inactive) | > 30 µM (inactive) | COc1cc2ncnc(Nc3ccc(F)c(Cl)c3)c2cc1NC(=O)/C=C/CN1CCCCC1 [DACOMITINIB ANHYDROUS]
8 | > 30 µM (inactive) | > 30 µM (inactive) | > 30 µM (inactive) | > 30 µM (inactive) | > 30 µM (inactive) | > 30 µM (inactive) | > 30 µM (inactive) | > 30 µM (inactive) | Cn1c(=O)n(-c2ccc(C(C)(C)C#N)cc2)c2c3cc(-c4cnc5ccccc5c4)ccc3ncc21 [DACTOLISIB]
9 | > 30 µM (inactive) | > 30 µM (inactive) | > 30 µM (inactive) | > 30 µM (inactive) | > 30 µM (inactive) | > 30 µM (inactive) | > 30 µM (inactive) | > 30 µM (inactive) | COc1cc(Nc2ncc(F)c(Nc3ccc4c(n3)N(COP(=O)(O)O)C(=O)C(C)(C)O4)n2)cc(OC)c1OC [FOSTAMATINIB]
10 | > 30 µM (inactive) | > 30 µM (inactive) | > 30 µM (inactive) | > 30 µM (inactive) | > 30 µM (inactive) | > 30 µM (inactive) | > 30 µM (inactive) | > 30 µM (inactive) | O=S(=O)(c1cccc2c(O)nccc12)N1CCCNCC1 [HYDROXYFASUDIL]

Row | SMILES | Kd (Ephrin type-A receptor 4) | Kd [1] | Kd [2] | Kd [3] | Kd [4] | Kd [5] | Kd [6] | Kd [7]
11 | CC1(COc2ccc3c(c2)ncn3-c2ccc3cccc(N4CCC(N)CC4)c3n2)COC1 [CRENOLANIB] | > 30 µM (inactive) | > 30 µM (inactive) | > 30 µM (inactive) | > 30 µM (inactive) | 0.406 µM (active) | > 30 µM (inactive) | > 30 µM (inactive) | 1.98 µM (active)
